# Reference: patent US20230151025A1, “SUBSTITUTED THIAZOLOPYRIDINES, SALTS THEREOF AND THEIR USE AS HERBICIDALLY ACTIVE SUBSTANCES” (Bayer Aktiengesellschaft, priority 2020, published 2023)
# What was measured:
# Format in all cases: in vivo
# [1] = test system: Echinochloa crus-galli (ECHCG); experiment: Herbicidal pre-emergence action (C), 320 g/ha; details: ca. 3 weeks
# Method in brief: (§1)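 Sandy loam pots, seeds covered with soil → WP/EC compound sprayed on soil surface (aq., +0.5% additive, 600 l/ha) → greenhouse, optimum growth → visual herbicidal effect (%) at ca. 3 wk vs untreated.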
# [2] = test system: Amaranthus retroflexus (AMARE); experiment: Herbicidal pre-emergence action (C), 320 g/ha; details: ca. 3 weeks
# Method in brief: as §1
# Lolium rigidum (LOLRI) = experiment: Herbicidal pre-emergence action (C), 320 g/ha; details: ca. 3 weeks
# Method in brief: as §1
# [3] = test system: Matricaria inodora (MATIN); experiment: Herbicidal pre-emergence action (C), 320 g/ha; details: ca. 3 weeks
# Method in brief: as §1
# Veronica persica (VERPE) [4] = experiment: Herbicidal pre-emergence action (C), 320 g/ha; details: ca. 3 weeks
# Method in brief: as §1
# [5] = test system: Abutilon theophrasti (ABUTH); experiment: Herbicidal pre-emergence action (C), 320 g/ha; details: ca. 3 weeks
# Method in brief: as §1
# Setaria viridis (SETVI) [6] = experiment: Herbicidal pre-emergence action (C), 320 g/ha; details: ca. 3 weeks
# Method in brief: as §1
# [7] = test system: Polygonum convolvulus (POLCO); experiment: Herbicidal pre-emergence action (C), 320 g/ha; details: ca. 3 weeks
# Method in brief: as §1
# [8] = test system: Alopecurus myosuroides (ALOMY); experiment: Herbicidal pre-emergence action (C), 320 g/ha; details: ca. 3 weeks
# Method in brief: as §1
# [9] = test system: Amaranthus retroflexus (AMARE); experiment: Herbicidal post-emergence action (D), 320 g/ha; details: ca. 3 weeks
# Method in brief: (§2)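 Post-emergence greenhouse spray of WP or EC formulations plus 0.5% additive at 600 l water/ha onto single-leaf-stage plants, 2–3 weeks after sowing in sandy loam. About 3 weeks later, effect was rated visually against untreated controls as % herbicidal effect, where 0% means like control and 100% means plants dead.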
# Veronica persica (VERPE) [10] = experiment: Herbicidal post-emergence action (D), 320 g/ha; details: ca. 3 weeks
# Method in brief: as §2
# Viola tricolor (VIOTR) = experiment: Herbicidal post-emergence action (D), 320 g/ha; details: ca. 3 weeks
# Method in brief: as §2
# Setaria viridis (SETVI) [11] = experiment: Herbicidal post-emergence action (D), 320 g/ha; details: ca. 3 weeks
# Method in brief: as §2
# [12] = test system: Polygonum convolvulus (POLCO); experiment: Herbicidal post-emergence action (D), 320 g/ha; details: ca. 3 weeks
# Method in brief: as §2
# [13] = test system: Alopecurus myosuroides (ALOMY); experiment: Herbicidal post-emergence action (D), 320 g/ha; details: ca. 3 weeks
# Method in brief: as §2
# [14] = test system: Digitaria sanguinalis (DIGSA); experiment: Herbicidal pre-emergence action (C), 320 g/ha; details: ca. 3 weeks
# From the text: (§3) Seeds of mono- and dicotyledonous weed plants and crop plants were sown, in plastic or organic planting pots, in sandy loam and covered with soil. The compounds according to the invention, formulated in the form of wettable powders (WP) or as emulsifiable concentrates (EC), were applied to the surface of the covering soil as aqueous suspension or emulsion, with the addition of 0.5% of an additive, at an application rate of 600 l of water/ha (converted).
# (§4) Following treatment, the pots were placed in a greenhouse and kept under optimum growth conditions for the test plants. The visual grading of the damage to the test plants was carried out after ca. 3 weeks in comparison to untreated controls (herbicidal effect in percent (%): 100% effect=plants have died off, 0% effect=as control plants).
# (§5) Tables C1 to C13 below show the effects of selected compounds of the general formula (I) according to table 1 on various harmful plants and an application rate corresponding to 320 g/ha obtained by the experimental procedure mentioned above.
# [15] = test system: Digitaria sanguinalis (DIGSA); experiment: Herbicidal post-emergence action (D), 320 g/ha; details: ca. 3 weeks
# From the text: Seeds of mono- and dicotyledonous weed plants and crop plants were sown, in plastic or organic planting pots, in sandy loam, covered with soil and grown in a greenhouse under controlled growth conditions. 2 to 3 weeks after sowing, the test plants were sprayed in the single-leaf stage. The compounds according to the invention, formulated in form of wettable powders (WP) or as emulsifiable concentrates (EC), were sprayed onto the green plant parts as aqueous suspension or emulsion, with the addition of 0.5% of an additive, at an application rate of 600 l of water/ha (converted). The test plants were placed in the greenhouse for ca. 3 weeks under optimum growth conditions, and then the effect of the preparations was assessed visually in comparison with untreated controls (herbicidal effect in percent (%): 100% effect=plants have died off, 0% effect=as control plants).
# Tables D1 to D13 below show the effects of selected compounds of the general formula (I) according to table 1 on various harmful plants and an application rate corresponding to 320 g/ha obtained by the experimental procedure mentioned above.
# [16] = test system: Echinochloa crus-galli (ECHCG); experiment: Herbicidal post-emergence action (B), 1280 g/ha; details: rated visually after about 3 weeks vs untreated controls
# Method in brief: (§6)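 Post-emergence greenhouse test: weeds in sandy loam treated at the one-leaf stage, 2 to 3 weeks after sowing, with WP or EC formulations plus 0.5% additive at 600 l/ha water. Visual activity versus untreated controls after about 3 weeks (100% = dead, 0% = like control).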
# [17] = test system: Digitaria sanguinalis (DIGSA); experiment: Herbicidal post-emergence action (B), 1280 g/ha; details: rated visually after about 3 weeks vs untreated controls
# Method in brief: as §6
# Stellaria media (STEME) [18] = experiment: Herbicidal post-emergence action (B), 1280 g/ha
# Method in brief: as §6
# [19] = test system: Amaranthus retroflexus (AMARE); experiment: Herbicidal post-emergence action (B), 1280 g/ha; details: rated visually after about 3 weeks vs untreated controls
# Method in brief: as §6
# [20] = test system: Matricaria inodora (MATIN); experiment: Herbicidal post-emergence action (B), 1280 g/ha; details: rated visually after about 3 weeks vs untreated controls
# Method in brief: as §6
# Veronica persica (VERPE) [21] = experiment: Herbicidal post-emergence action (B), 1280 g/ha
# Method in brief: as §6
# [22] = test system: Abutilon theophrasti (ABUTH); experiment: Herbicidal post-emergence action (B), 1280 g/ha; details: rated visually after about 3 weeks vs untreated controls
# Method in brief: as §6
# [23] = test system: Kochia scoparia (KCHSC; Bassia scoparia); experiment: Herbicidal post-emergence action (B), 1280 g/ha
# Method in brief: as §6
# Setaria viridis (SETVI) [24] = experiment: Herbicidal post-emergence action (B), 1280 g/ha; details: rated visually after about 3 weeks vs untreated controls
# Method in brief: as §6
# Poa annua (POAAN) [25] = experiment: Herbicidal post-emergence action (B), 1280 g/ha; details: rated visually after about 3 weeks vs untreated controls
# Method in brief: as §6
# [26] = test system: Alopecurus myosuroides (ALOMY); experiment: Herbicidal post-emergence action (B), 1280 g/ha; details: rated visually after about 3 weeks vs untreated controls
# Method in brief: as §6
# [27] = test system: Digitaria sanguinalis (DIGSA); experiment: Herbicidal pre-emergence action (A), 1280 g/ha; details: visual grading after ca. 3 weeks vs untreated controls, 100% = plants have died off, 0% = as control plants
# Method in brief: (§7)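 Pre-emergence greenhouse test: seeds sown in sandy loam pots, WP or EC formulations sprayed onto covering soil as aqueous suspension/emulsion with 0.5% additive at 600 l water/ha. Damage graded visually after ca. 3 weeks versus untreated controls, 0% = as control, 100% = plants dead.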
# Stellaria media (STEME) [28] = experiment: Herbicidal pre-emergence action (A), 1280 g/ha; details: visual grading after ca. 3 weeks vs untreated controls
# Method in brief: as §7
# [29] = test system: Amaranthus retroflexus (AMARE); experiment: Herbicidal pre-emergence action (A), 1280 g/ha; details: visual grading after ca. 3 weeks vs untreated controls
# Method in brief: as §7
# [30] = test system: Matricaria inodora (MATIN); experiment: Herbicidal pre-emergence action (A), 1280 g/ha; details: visual grading after ca. 3 weeks vs untreated controls
# Method in brief: as §7
# Setaria viridis (SETVI) [31] = experiment: Herbicidal pre-emergence action (A), 1280 g/ha; details: visual grading after ca. 3 weeks vs untreated controls
# Method in brief: as §7
# Poa annua (POAAN) [32] = experiment: Herbicidal pre-emergence action (A), 1280 g/ha; details: visual grading after ca. 3 weeks vs untreated controls, 100% = plants have died off, 0% = as control plants
# Method in brief: as §7
# [33] = test system: Abutilon theophrasti (ABUTH); experiment: Herbicidal post-emergence action (D), 320 g/ha; details: ca. 3 weeks
# Method in brief: as §2
# [34] = test system: Echinochloa crus-galli (ECHCG); experiment: Herbicidal post-emergence action (D), 320 g/ha; details: ca. 3 weeks
# Method in brief: as §2
# Avena fatua = experiment: Herbicidal pre-emergence action (C), 320 g/ha; details: ca. 3 weeks
# From the text: as §3, §4, §5
SMILES,herbicidal effect ECHCG [1] [%],herbicidal effect AMARE [2] [%],herbicidal effect LOLRI (Lolium rigidum (LOLRI)) [%],herbicidal effect MATIN [3] [%],herbicidal effect VERPE (Veronica persica (VERPE) [4]) [%],herbicidal effect SETVI (Setaria viridis (SETVI) [6]) [%],herbicidal effect ALOMY [8] [%],herbicidal effect VERPE (Veronica persica (VERPE) [10]) [%],herbicidal effect VIOTR (Viola tricolor (VIOTR)) [%],herbicidal effect SETVI (Setaria viridis (SETVI) [11]) [%],herbicidal effect POLCO [12] [%],herbicidal effect ALOMY [13] [%],herbicidal effect ABUTH [33] [%],other results
Cc1ccccc1-c1nc2ncsc2cc1C [Example I-018],100,90,100,90,90,100,100,80,90,80,100,90,–,herbicidal effect ABUTH [5]: 80%; herbicidal effect POLCO [7]: 90%; herbicidal effect AMARE [9]: 90%; herbicidal effect DIGSA [14]: 100%; herbicidal effect DIGSA [15]: 90%
CCc1cc2sc(OC)nc2nc1-c1ccccc1C [Example I-094],80,–,–,–,–,–,–,90,–,–,–,–,80,"herbicidal activity ECHCG [16]: 100%; herbicidal activity DIGSA [17]: 100%; herbicidal effect STEME (Stellaria media (STEME) [18]): 100%; herbicidal activity AMARE [19]: 100%; herbicidal activity MATIN [20]: 100%; herbicidal effect VERPE (Veronica persica (VERPE) [21]): 100%; herbicidal activity ABUTH [22]: 100%; herbicidal effect KCHSC [23]: 100%; herbicidal activity SETVI (Setaria viridis (SETVI) [24]): 100%; herbicidal activity POAAN (Poa annua (POAAN) [25]): 100%; herbicidal activity ALOMY [26]: 100%; DIGSA, herbicidal effect in percent (%) [27]: 100%; herbicidal effect STEME (Stellaria media (STEME) [28]): 100%; herbicidal effect AMARE [29]: 100%; herbicidal effect MATIN [30]: 100%; herbicidal effect SETVI (Setaria viridis (SETVI) [31]): 100%; POAAN, herbicidal effect in percent (%) (Poa annua (POAAN) [32]): 100%"
Fc1ccc(-c2nc3ncsc3cc2Cl)c(F)c1 [Example I-127],100,80,80,80,90,100,90,80,80,90,90,90,80,herbicidal effect ECHCG [34]: 90%; herbicidal effect AVEFA (Avena fatua): 90%
